Measured values reported in patent US20120164117A1, “METHODS OF GENERATING HUMAN CARDIAC CELLS AND TISSUES AND USES THEREOF” (TECHNION RESEARCH & DEVELOPMENT FOUNDATION LTD., priority 2001, published 2012).
Where two headings read alike, the source gives them in different places.

What was measured:
[1] = test system: human embryonic stem cell line H9.2 embryoid bodies; assay: Cardiomyocyte differentiation efficiency, percentage of contracting embryoid bodies; type: cell-based
Description: Generation of human embryonic stem cell-derived cardiomyocytic cells: Ten different human embryonic stem cell lines including line H9 or its single cell clonal derivative H9.2 (Amit, M. et al., 2000. Dev. Biol. 227: 271) were individually grown on a mitotically inactivated (mitomycin C) mouse embryonic fibroblast feeder cell layer in culture medium, as previously described (Thomson, J. A. et al., 1998. Science 282: 1145). The culture medium consisted of 80% knockout DMEM (no-pyruvate, high-glucose formulation; Life Technologies, Inc., Rockville, Md., USA.) supplemented with 20% FBS (HyClone, Logan, Utah, USA.), 1 mM L-glutamine, 0.1 mM mercaptoethanol, and 1% nonessential amino acid stock (all from GIBCO-BRL). To induce differentiation, embryonic stem cells were dispersed into small clumps (3-20 cells) using collagenase IV (Life Technologies, Inc., 1 mg/ml for 20 minutes). […] The percentage of embryoid bodies displaying contracting areas, as well as the distribution of the timing of onset of spontaneous beating were evaluated. […] In addition, the effect of DMSO, a known stimulant of differentiation into cardiomyocytic lineage was assessed by adding dimethyl sulfoxide (Sigma Chemical Co., St. Louis, Mo., USA.) at a concentration of 0.75% (vol/vol) to the culture medium during the 10 days of growth in suspension. […]

[2] = test system: human embryonic stem cell-derived cardiomyocytic tissue (contracting embryoid bodies); assay: Pharmacological analysis of conduction, multielectrode array activation mapping of embryoid bodies; type: cell-based; set-up: Global Velocity / Mean CV Vector: unit not given here; details: for total activation time: one embryoid body
[3] = test system: hybrid rat ventricular myocyte-human embryonic stem cell-derived cardiomyocyte co-cultures; assay: Electrical coupling in hybrid human ES cell-derived cardiomyocyte / neonatal rat ventricular myocyte co-cultures on microelectrode array; type: cell-based
Protocol: Performed as described above in Example 2 of the Examples section. Primary monolayer cultures of neonatal rat (Sprague Dawley) ventricular myocytes were prepared as previously described (Fast V G. and Kleber A G., 1993. Circ Res. 73:914). Briefly, following excision, the ventricles were minced and treated with RDB (IIBR, Ness-Ziona, Israel). Dispersed cells were then cultured on gelatin coated (0.1%) microelectrode array plates or on glass cover slips at a density of 1.5×10^6 cells/ml. […] Pacing studies in co-cultures were performed by electrically stimulating the human or rat tissues with one of the electrodes of the multielectrode array. The degree of electrical coupling between the two tissue types was also assessed during long term recordings and during adrenergic stimulation and partial gap junction uncoupling. The cycle-lengths of the electrical activity in the ES cell-derived cardiomyocytes and in the rat tissue were measured and a histogram depicting the ratio between these two cycle-lengths during long-term recordings is shown in FIG. 16i.

[4] = test system: human embryonic stem cell-derived cardiomyocytic cells (contracting embryoid bodies); assay: Chronotropic responses of contracting embryoid bodies, multielectrode array extracellular recordings; type: cell-based; details: for spontaneous contraction rate, % of baseline (initial) value: drug at 10^−6 M (1 μM)
Description: Multielectrode array (MEA) extracellular electrophysiology mapping and pharmacological studies: Intact contracting areas within the embryoid bodies were mechanically dissected using a pulled-glass micropipette and plated on gelatin-coated multielectrode arrays (Multi Channel Systems MCS GmbH, Reutlingen, Germany; Igelmund, P. et al., 1999. Pflugers Arch. 437: 669). The microelectrode array consists of 60 titanium nitride electrodes with gold contacts 30 μm in diameter with an interelectrode distance of 100-200 μm. The contracting areas were plated on top of the microelectrode arrays and cells were grown to confluence over the electrodes. […] Extracellular signals were recorded simultaneously from all 60 electrodes at 25 kHz and band-pass filtered from 1 to 3000 Hz. Recordings were performed in culture medium at 37° C. A pH of 7.4 was maintained using perfusion with an atmosphere containing 5% CO2 and 95% air. Chronotropic responses were assessed by extracellular recordings for 10 minutes prior to and following […], 1 μM carbamylcholine, 10 μM 3-isobutyl-1-methylxanthine (IBMX), or 1 μM forskolin (all from Sigma). Statistical analysis: Data are expressed as mean ±standard deviation. In order to assess possible chronotropic effects, the average spontaneous beating rate was compared prior to and following drug application using two-tailed paired Student's t test.

[5] = test system: swine model of complete atrioventricular block; assay: Swine complete atrioventricular block model transplanted with human ES cell-derived cardiomyocytic cells, rate of new ventricular rhythm; type: in vivo; details: following isoproterenol (20 μM); rate before 68±4 beats/minute
[6] = extracellular potassium 10 mM, n=7
[7] = extracellular potassium 15 mM, n=7
[8] = extracellular potassium 20 mM, n=7

C[S+](C)[O-] [DMSO, dimethyl sulfoxide]
increase of the percentage of embryoid bodies with cells displaying cardiac lineage differentiation ([1]; 0.75 percent (v/v) dimethyl sulfoxide): about 20%
percentage of embryoid bodies demonstrating contracting areas ([1]; DMSO 0.75% (vol/vol) during suspension, 8.1% without): 10.1%

COc1ccc([C@@H]2Sc3ccccc3N(CCN(C)C)C(=O)[C@@H]2OC(C)=O)cc1.Cl [Diltiazem, diltiazem hydrochloride]
Global Velocity [2]: 2.8 ± 2.0
Maximal − dv/dt [2]: 2.5 ± 4.2 mV/sec
Mean CV Vector [2]: 5.7 ± 4.2
changes in the conduction parameters studied (global velocity, local velocity vector, −dV/dtmax) [2]: did not result in significant changes

CCCCCCCO [Heptanol, 1-Heptanol]
co-cultures in which tight coupling was not altered ([3]; 1-Heptanol 0.5 mM): 5 of the 8
co-cultures with occasional episodes of 2:1 conduction block ([3]; 1-Heptanol 0.5 mM, 8 co-cultures studied): 3
total activation time ([2]; 1-heptanol 0.3 mM, baseline 15 milliseconds): 32 milliseconds
effect of higher doses on beating ([2]; 1-heptanol 0.6 and 1 mM, n=8): complete cessation of beating
Global Velocity ([2]; heptanol 0.3 mM, n=7): 1.7 ± 0.6
Maximal − dv/dt ([2]; heptanol 0.3 mM, n=7): 2.0 ± 2.3 mV/sec
Mean CV Vector ([2]; heptanol 0.3 mM, n=7): 3.0 ± 5.7
Global Velocity ([2]; heptanol 0.6 mM): 1.2 ± 0.9
Maximal − dv/dt ([2]; heptanol 0.6 mM): 2.1 ± 3.0 mV/sec
Mean CV Vector ([2]; heptanol 0.6 mM): 3.0 ± 3.8
Global Velocity ([2]; heptanol 1 mM): No conduction
Maximal − dv/dt ([2]; heptanol 1 mM): No conduction
Mean CV Vector ([2]; heptanol 1 mM): No conduction

CC(C)Cn1c(=O)n(C)c(=O)c2[nH]cnc21 [IBMX, 3-isobutyl-1-methylxanthine]
spontaneous contraction rate, % of initial value ([4]; 10 μM IBMX, n=6, mean ± SD): 152±77%

CC(C)NCC(O)c1ccc(O)c(O)c1 (centres unmarked) [Isoproterenol, isoproterenol]
electrical coupling between the two cell types ([3]; isoproterenol 10 μM): not hindered
spontaneous beating rate ([3]; isoproterenol 10 μM, base line 1.6±0.6 Hz, p<0.05): 1.9±0.8 Hz
chronotropic response of contracting embryoid bodies ([4]; 10 μM isoproterenol): positive chronotropic responses
spontaneous contraction rate, % of baseline (initial) value ([4]; mean ± SD): 146±43%
heart rate of the new ventricular rhythm [5]: 105±10 beats/minute

[K+] [Potassium]
Global Velocity [2, 6]: 1.6 ± 0.6
Maximal − dv/dt [2, 6]: 2.7 ± 5.5 mV/sec
Mean CV Vector [2, 6]: 3.5 ± 4.2
total activation time ([2]; extracellular potassium 10 mM, baseline 25 milliseconds): 40 milliseconds
Global Velocity [2, 7]: 1.0 ± 0.3
Maximal − dv/dt [2, 7]: 1.1 ± 1.4 mV/sec
Mean CV Vector [2, 7]: 2.0 ± 2.3
total activation time ([2]; extracellular potassium 15 mM, baseline 25 milliseconds): 70 milliseconds
Global Velocity [2, 8]: 1.0 ± 0.4
Maximal − dv/dt [2, 8]: 1.1 ± 1.2 mV/sec
Mean CV Vector [2, 8]: 1.5 ± 1
total activation time ([2]; extracellular potassium 20 mM, baseline 25 milliseconds): 120 milliseconds

NC1=N[C@H](O)[C@H]2[C@H]3O[C@]4(O)O[C@@H]([C@@H](O)[C@@]2(N1)[C@@H]4O)[C@]3(O)CO [TTX, tetrodotoxin]
Global Velocity [2]: 1.8 ± 0.9
Maximal − dv/dt [2]: 1.9 ± 1.9 mV/sec
Mean CV Vector [2]: 3.2 ± 3
total microelectrode array activation time [2]: 35 milliseconds

CN1[C@@H]2CC[C@H]1C[C@@H](OC(=O)C(CO)c1ccccc1)C2 (some centres unmarked) [atropine]
effect on carbamylcholine-induced decrease of spontaneous contraction rate [4]: reversed

C[N+](C)(C)CCOC(N)=O.[Cl-] [carbamylcholine]
spontaneous contraction rate, % of baseline (initial) value ([4]; mean ± SD): 78±20%

C=C[C@@]1(C)CC(=O)[C@]2(O)[C@@]3(C)[C@@H](O)CCC(C)(C)[C@@H]3[C@H](O)[C@H](OC(C)=O)[C@@]2(C)O1 [forskolin]
spontaneous contraction rate, % of baseline (initial) value ([4]; mean ± SD): 182±48%
